Like-named read-outs stand apart in the source and are kept apart here.
Columns and labels:
[1] = target: T1, rat Y1 receptor (association with β-arrestin2) (Rattus norvegicus, UniProt P21555); assay type: cell-based
T1 sequence (P21555 2-382): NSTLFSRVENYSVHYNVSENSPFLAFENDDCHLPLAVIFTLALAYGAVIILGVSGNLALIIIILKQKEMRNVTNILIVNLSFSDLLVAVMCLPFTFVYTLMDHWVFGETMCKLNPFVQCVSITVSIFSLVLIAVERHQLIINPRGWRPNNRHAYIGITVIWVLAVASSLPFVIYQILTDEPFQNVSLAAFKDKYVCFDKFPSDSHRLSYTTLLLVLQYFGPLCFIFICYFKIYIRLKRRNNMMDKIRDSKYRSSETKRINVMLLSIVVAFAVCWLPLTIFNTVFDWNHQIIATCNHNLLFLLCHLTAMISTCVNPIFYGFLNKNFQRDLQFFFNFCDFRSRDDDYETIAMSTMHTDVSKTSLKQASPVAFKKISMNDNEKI

Y1 receptor (Y1–YFP) = Y1 receptor (Y1–YFP) (Rattus norvegicus, UniProt P21555); assay type: cell-based
[2] = 30 min pre-incubation, NPY 60 min
[3] = example triplicate experiment, Figure 6

Y1 receptor (Y1–YFP), sequence (P21555 whole entry): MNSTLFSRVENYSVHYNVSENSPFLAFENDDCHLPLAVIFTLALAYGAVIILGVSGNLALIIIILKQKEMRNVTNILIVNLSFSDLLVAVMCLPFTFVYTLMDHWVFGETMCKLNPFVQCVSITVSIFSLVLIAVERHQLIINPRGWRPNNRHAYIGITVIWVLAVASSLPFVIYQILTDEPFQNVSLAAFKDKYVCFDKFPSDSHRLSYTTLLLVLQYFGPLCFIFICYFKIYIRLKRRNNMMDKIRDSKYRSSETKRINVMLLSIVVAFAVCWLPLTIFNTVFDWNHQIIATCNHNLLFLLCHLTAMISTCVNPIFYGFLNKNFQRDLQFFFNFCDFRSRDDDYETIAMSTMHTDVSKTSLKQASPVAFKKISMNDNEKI

N=C(N)NCCC[C@@H](NC(=O)C(c1ccccc1)c1ccccc1)C(=O)NCc1ccc(O)cc1 [BIBP3226, (R)-N2-(diphenylacetyl)-N-[(4-hydroxyphenyl)methyl]-argininamide]
Schild slope, example experiment [1]: 1.1
Schild slope, pooled [1]: 1.1 ± 0.1
effect of antagonist alone on Y1/βarr2 BiFC, % of 1 µM NPY response [1]: −4.5 ± 10.0%

homodimeric Ile-Glu-Pro-Dpr-Tyr-Arg-Leu-Arg-Tyr-CONH2 [GR231118]
agonist activity in Y1–YFP endocytosis assay (Y1 receptor (Y1–YFP)): inactive
Schild slope, pooled [1, 2]: 1.5 ± 0.2
pA2 (Schild plot), pooled [1, 2]: 8.6 ± 0.2
agonist activity for stimulation of Y1/βarr2 BiFC ([1]; 1 h incubation): inactive
Schild slope, example experiment [1, 3]: 1.9
pA2 (Schild plot), example experiment [1, 3]: 8.3
